Results: US5166398A, “4-oxy-substituted phenoxyalkyl carboxylic acid, ester, and alcohol derivatives as antihyper-cholesterolemic and antiatherosclerotic agents” (Warner-Lambert Co., priority 1991, dated 1992)

System: not listed separately
Assay: elevation of HDL at 50 mg/kg relative to gemfibrozil 50 mg/kg (procedure of U.S. Pat. No. 4,413,011)
Assay type: in vivo
Details: ratio of HDL elevation, test drug 50 mg/kg vs gemfibrozil 50 mg/kg; 1 = as effective as gemfibrozil
Experimental: Additionally, the elevation of HDL is reported in the table as a ratio of the elevation of HDL effected by a dose of 50 mg/kg of the test drug divided by the elevation of HDL effected by a 50 mg/kg dose of gemfibrozil which is used as a control in each experiment. [formula] Thus, a figure of 1 means that the test drug was as effective as gemfibrozil in elevating HDL. […] The test procedure is described in U.S. Pat. No. 4,413,011 which is herein incorporated by reference.

Compound | Δ HDL Test Compound / Δ HDL Gemfibrozil
Cc1cc(OCc2ccccc2)c(C)cc1OCCCC(C)(C)C(=O)O [Example 14, 5-[2,5-Dimethyl-4-(phenylmethoxy)phenoxy]-2,2-dimethylpentanoic acid] | 1.0
COc1cc(C)c(OCCCC(C)(C)C(=O)O)cc1C [Example 4, 5-(4-Methoxy-2,5-dimethylphenoxy)-2,2-dimethylpentanoic acid] | 1.2
CCOc1cc(C)c(OCCCC(C)(C)C(=O)OC)cc1C [Example 3, 5-(4-Ethoxy-2,5 dimethylphenoxy)-2,2 dimethylpentanoic acid, methyl ester] | 1.2
Cc1cc(OCCCC(C)(C)CO)c(C)c(C)c1OCc1ccccc1 [Example 10] | 0.9
COC(=O)C(C)(C)CCCOc1cc(C)c(OCc2ccccc2)c(C)c1 [Example 11, 5-[3,5-Dimethyl-4-(phenylmethoxy)phenoxy]-2,2-dimethylpentanoic acid, methyl ester] | 1.2
Cc1cc(OCCCC(C)(C)C(=O)O)c(C)c(C)c1OCc1ccccc1 [Example 9, 2,2-Dimethyl-5-[2,3,5-trimethyl-4-(phenylmethoxy)-phenoxy]pentanoic acid] | 0.9
CCCCOc1cc(C)c(OCCCC(C)(C)C(=O)O)cc1C [Example 5, 5-(4-Butoxy-2,5-dimethylphenoxy)-2,2-dimethylpentanoic acid] | 0.9
COC(=O)C(C)(C)CCCOc1c(C)cc(OC(=O)C(C)(C)C)c(C)c1C [Example 7, 5-[4-(2,2-Dimethyl-1-oxopropoxy)-2,3,6-trimethylphenoxy]-2,2 dimethylpentanoic acid, methyl ester] | 1.1
CCOc1cc(C)c(OCCCC(C)(C)C(=O)O)cc1C [Example 6, 5-(4-Ethoxy-2,5-dimethylphenoxy)-2,2-dimethylpentanoic acid] | 1.4
COC(=O)C(C)(C)CCCOc1cc(C)c(OCc2ccccc2)c(C)c1C [Example 8, 2,2-Dimethyl-5-[2,3,5-trimethyl-4-(phenylmethoxy)phenoxy]pentanoic acid, methyl ester] | 1.0
CCCCOc1cc(C)c(OCCCC(C)(C)C(=O)OC)cc1C [Example 2, 5-(4-Butoxy-2,5-dimethylphenoxy)-2,2-dimethylpentanoic acid, methyl ester] | 0.85

Molecular target: T1, acyl-CoA:cholesterol acyltransferase (ACAT) (Oryctolagus cuniculus, UniProt G1SFD9)
T1 construct: rabbit intestinal microsomal fraction; from tissue; host or cells: rabbit intestine, microsomal fraction
T1 sequence (G1SFD9 1-524): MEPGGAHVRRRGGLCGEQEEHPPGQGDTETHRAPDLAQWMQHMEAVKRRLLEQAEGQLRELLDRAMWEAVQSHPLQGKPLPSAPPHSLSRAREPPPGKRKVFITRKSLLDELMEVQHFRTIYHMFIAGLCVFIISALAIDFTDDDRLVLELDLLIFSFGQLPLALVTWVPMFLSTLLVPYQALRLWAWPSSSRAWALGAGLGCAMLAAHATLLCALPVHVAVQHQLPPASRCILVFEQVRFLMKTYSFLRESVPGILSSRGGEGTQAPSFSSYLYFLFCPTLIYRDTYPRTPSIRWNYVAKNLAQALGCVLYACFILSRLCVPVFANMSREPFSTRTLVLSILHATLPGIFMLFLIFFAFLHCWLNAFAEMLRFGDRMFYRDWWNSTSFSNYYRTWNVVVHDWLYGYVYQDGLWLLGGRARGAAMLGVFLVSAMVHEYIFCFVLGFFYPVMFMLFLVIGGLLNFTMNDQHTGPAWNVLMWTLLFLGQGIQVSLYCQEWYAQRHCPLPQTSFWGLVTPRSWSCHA
Assay: inhibition of cholesterol esterification by ACAT, rabbit intestinal microsomal fraction (cholesteryl oleate formation from endogenous cholesterol and exogenous 14C-oleoyl-CoA)
Assay type: biochemical
Details: rabbit intestinal microsomes; in vitro; read-out: IC50, concentration of test compound required to inhibit cholesteryl oleate formation to 50% of control
Experimental: The compounds of the present invention were tested for their ability to inhibit the esterification of cholesterol by the enzyme acyl-CoA:cholesterol acyltransferase (ACAT). The data in the table below is expressed as IC50 values, i.e., the concentration of test compound required to inhibit cholesteryl oleate formation to 50% of control.
The in vitro test employed is more fully described in Field, F. J. and Salome, R. G., Biochemica et Biophysica Acta, Vol. 712, pages 557-570 (1982). The assay evaluates the ability of a test compound to inhibit the esterification of cholesterol using endogenous cholesterol of a rabbit intestinal microsomal fraction and exogenous ^14 C-oleoyl-CoA as reactants.

Compound | IC50
COC(=O)C(C)(C)CCCOc1cc(C)c(OC(=O)Nc2c(C(C)C)cccc2C(C)C)cc1C [Example 15, 5-[4-[[[[2,6-Bis(1-methylethyl)phenyl]amino]carbonyl]oxy]-2,5-dimethylphenoxy]-2,2-dimethylpentanoic acid, methyl ester] | > 5 µM

System: coronary heart disease
Assay: not given
Details: human, in vivo; cited from earlier work

Compound | effect on HDL (in words) | effect on LDL (in words)
Cc1ccc(C)c(OCCCC(C)(C)C(=O)O)c1 [gemfibrozil] | elevates HDL | lowers LDL

Same assay, conditions: patients with elevated cholesterol levels; five-year trial; cited from earlier work

Compound | reduction of the rate of heart attack and sudden cardiac death
Cc1ccc(C)c(OCCCC(C)(C)C(=O)O)c1 [gemfibrozil] | 34%
